In ChEMBL document CHEMBL3244272, “Folate antagonists. 15. 2,3-Diamino-6-(2-naphthylsulfonyl)quinazoline and related 2,4-diamino-6-[(phenyl and naphthyl)sulfinyl and sulfonyl]quinazolines, a potent new class of antimetabolites with phenomenal antimalarial activity” (J Med Chem, 1979):
Converted amounts (≈) assume the structure as drawn. The source made the active and inactive calls. No cut-off for these calls is given here.

What was measured:
Shigella sonnei = assay: Antibacterial activity against Shigella sonnei C-10 assessed as growth inhibition; assay type: functional
Plasmodium gallinaceum [1] = assay: Antimalarial activity against trophozoite-induced Plasmodium gallinaceum infected in chick assessed as cured at 2.5 mg/kg, sc single dose; assay type: functional, organism-based; parameters: dose 2.5 mg/kg
Gallus gallus [2] = assay: Toxicity in trophozoite-induced Plasmodium gallinaceum infected in chick assessed as death at 2.5 mg/kg, sc single dose measured within 48 hrs; assay type: organism-based; parameters: dose 2.5 mg/kg, route subcutaneous; settings: chicken, in vivo
Staphylococcus aureus [3] = assay: Antibacterial activity against Staphylococcus aureus S18713 assessed as growth inhibition; assay type: functional
Plasmodium falciparum [4] = assay: Antimalarial activity against Plasmodium falciparum Vietnam Oak Knoll in po dosed Owl monkey assessed as curative dose compound treated for 7 days in presence of 5 mg/kg sulfadiazine for 7 days; assay type: functional
Gallus gallus [5] = assay: Toxicity in trophozoite-induced Plasmodium gallinaceum infected in chick assessed as death at 40 mg/kg, sc single dose measured within 48 hrs; assay type: organism-based; parameters: dose 40 mg/kg, route subcutaneous; settings: chicken, in vivo
Plasmodium falciparum [6] = assay: Antimalarial activity against chloroquine-resistant, pyrimethamine-sensitive Plasmodium falciparum Vietnam Oak Knoll in Aotus monkey assessed as dose required to >50% cures compound treated for 7 days; assay type: functional
Plasmodium gallinaceum [7] = assay: Antimalarial activity against trophozoite-induced Plasmodium gallinaceum infected in chick assessed as cured at 1.25 mg/kg, sc single dose; assay type: functional, organism-based; parameters: dose 1.25 mg/kg
Plasmodium gallinaceum [8] = assay: Antimalarial activity against trophozoite-induced Plasmodium gallinaceum infected in chick assessed as cured at 5 mg/kg, sc single dose; assay type: functional, organism-based; parameters: dose 5 mg/kg
Gallus gallus [9] = assay: Toxicity in trophozoite-induced Plasmodium gallinaceum infected in chick assessed as death at 1.25 mg/kg, sc single dose measured within 48 hrs; assay type: organism-based; parameters: dose 1.25 mg/kg, route subcutaneous; settings: chicken, in vivo
Plasmodium berghei [10] = assay: Antimalarial activity against trophozoite-induced Plasmodium berghei infected in mouse assessed as change in mean survival time at 2.5 mg/kg, sc single dose after 72 hrs of infection; assay type: functional; settings: route subcutaneous
Pseudomonas aeruginosa = assay: Antibacterial activity against Pseudomonas aeruginosa 28 assessed as growth inhibition; assay type: functional
Plasmodium berghei [11] = assay: Antimalarial activity against trophozoite-induced Plasmodium berghei infected in sc dosed mouse assessed as minimum curative dose; assay type: functional
Staphylococcus aureus [12] = assay: Antibacterial activity against Staphylococcus aureus UC-76 assessed as growth inhibition; assay type: functional
[13] = Inhibition of Plasmodium berghei dihydrofolate reductase
Lacticaseibacillus casei = assay: Antibacterial activity against Lactobacillus casei assessed as growth inhibition; assay type: functional, organism-based
Plasmodium gallinaceum [14] = assay: Antimalarial activity against trophozoite-induced Plasmodium gallinaceum infected in chick assessed as mean survival time at 5 mg/kg, sc single dose (reference value: 4 days); assay type: functional; settings: route subcutaneous
Plasmodium gallinaceum [15] = assay: Antimalarial activity against trophozoite-induced Plasmodium gallinaceum infected in chick assessed as cured at 20 mg/kg, sc single dose; assay type: functional, organism-based; parameters: dose 20 mg/kg
Plasmodium gallinaceum [16] = assay: Antimalarial activity against trophozoite-induced Plasmodium gallinaceum infected in chick assessed as mean survival time at 20 mg/kg, sc single dose (reference value: 4 days); assay type: functional; settings: route subcutaneous
Gallus gallus [17] = assay: Toxicity in trophozoite-induced Plasmodium gallinaceum infected in chick assessed as death at 20 mg/kg, sc single dose measured within 48 hrs; assay type: organism-based; parameters: dose 20 mg/kg, route subcutaneous; settings: chicken, in vivo
[18] = system: Mycobacterium tuberculosis; assay: Antibacterial activity against Mycobacterium tuberculosis H37Rv assessed as growth inhibition; assay type: functional
Enterococcus faecalis [19] = assay: Antibacterial activity against Streptococcus faecalis assessed as growth inhibition; assay type: functional, organism-based
Plasmodium falciparum [20] = assay: Antimalarial activity against Plasmodium falciparum Vietnam Smith in po dosed Owl monkey assessed as curative dose compound treated for 7 days in presence of 5 mg/kg sulfadiazine for 7 days; assay type: functional
Escherichia coli = assay: Antibacterial activity against Escherichia coli Vogel assessed as growth inhibition; assay type: functional
Plasmodium vivax [21] = assay: Antimalarial activity against Plasmodium vivax VietnamPalo Alto in po dosed Owl monkey assessed as curative dose compound treated for 7 days in presence of 5 mg/kg sulfadiazine for 7 days; assay type: functional
Plasmodium berghei [22] = assay: Antimalarial activity against trophozoite-induced Plasmodium berghei infected in mouse assessed as change in mean survival time at 1.25 mg/kg, sc single dose after 72 hrs of infection; assay type: functional; settings: route subcutaneous
Plasmodium gallinaceum [23] = assay: Antimalarial activity against trophozoite-induced Plasmodium gallinaceum infected in chick assessed as mean survival time at 1.25 mg/kg, sc single dose (reference value: 4 days); assay type: functional; settings: route subcutaneous
Plasmodium gallinaceum [24] = assay: Antimalarial activity against trophozoite-induced Plasmodium gallinaceum infected in chick assessed as cured at 10 mg/kg, sc single dose; assay type: functional, organism-based; parameters: dose 10 mg/kg
Plasmodium falciparum [25] = assay: Antimalarial activity against Plasmodium falciparum Malayan Camp CH/Q infected in po dosed Owl monkey assessed as curative dose compound treated for 7 days in presence of 5 mg/kg sulfadiazine for 7 days; assay type: functional
Gallus gallus [26] = assay: Toxicity in trophozoite-induced Plasmodium gallinaceum infected in chick assessed as death at 5 mg/kg, sc single dose measured within 48 hrs; assay type: organism-based; parameters: dose 5 mg/kg, route subcutaneous; settings: chicken, in vivo
Plasmodium gallinaceum [27] = assay: Antimalarial activity against trophozoite-induced Plasmodium gallinaceum infected in chick assessed as mean survival time at 2.5 mg/kg, sc single dose (reference value: 4 days); assay type: functional; settings: route subcutaneous
Gallus gallus [28] = assay: Toxicity in trophozoite-induced Plasmodium gallinaceum infected in chick assessed as death at 10 mg/kg, sc single dose measured within 48 hrs; assay type: organism-based; parameters: dose 10 mg/kg, route subcutaneous; settings: chicken, in vivo
Enterococcus faecalis [29] = assay: Antibacterial activity against Streptococcus faecalis MGH-2 assessed as growth inhibition; assay type: functional
Plasmodium vivax [30] = assay: Antimalarial activity against Plasmodium vivax VietnamPalo Alto in po once daily dosed Owl monkey assessed as curative dose compound treated for 7 days; assay type: functional
Plasmodium falciparum [31] = assay: Antimalarial activity against Plasmodium falciparum Vietnam Oak Knoll in po once daily dosed Owl monkey assessed as curative dose compound treated for 7 days; assay type: functional
Plasmodium falciparum [32] = assay: Antimalarial activity against Plasmodium falciparum Vietnam Smith in po once daily dosed Owl monkey assessed as curative dose compound treated for 7 days; assay type: functional
Plasmodium gallinaceum [33] = assay: Antimalarial activity against cycloguanil-resistant Plasmodium gallinaceum infected in mouse assessed as dose required to suppress parasitemia by 90% compound treated through gavage for 3 days; assay type: functional
Plasmodium gallinaceum [34] = assay: Antimalarial activity against trophozoite-induced Plasmodium gallinaceum infected in chick assessed as mean survival time at 10 mg/kg, sc single dose (reference value: 4 days); assay type: functional; settings: route subcutaneous
Plasmodium gallinaceum [35] = assay: Antimalarial activity against trophozoite-induced Plasmodium gallinaceum infected in chick assessed as cured at 40 mg/kg, sc single dose; assay type: functional, organism-based; parameters: dose 40 mg/kg
Plasmodium gallinaceum [36] = assay: Antimalarial activity against trophozoite-induced Plasmodium gallinaceum infected in chick assessed as mean survival time at 40 mg/kg, sc single dose (reference value: 4 days); assay type: functional; settings: route subcutaneous
Plasmodium berghei [37] = assay: Antimalarial activity against trophozoite-induced Plasmodium berghei infected in mouse assessed as change in mean survival time at 5 mg/kg, sc single dose after 72 hrs of infection; assay type: functional; settings: route subcutaneous
Plasmodium vivax [38] = assay: Antimalarial activity against Plasmodium vivax New Guinea Chesson in po once daily dosed Owl monkey assessed as curative dose compound treated for 7 days; assay type: functional
[39] = Antibacterial activity against Pediococcus cerevisiae assessed as growth inhibition; assay type: functional
Plasmodium gallinaceum [40] = assay: Antimalarial activity against cycloguanil-resistant Plasmodium gallinaceum infected in mouse assessed as dose required to suppress parasitemia by 90% compound treated through gavage for 3 days relative to parent strain; assay type: functional
Plasmodium falciparum [41] = assay: Antimalarial activity against Plasmodium falciparum Malayan Camp CH/Q infected in po once daily dosed Owl monkey assessed as curative dose compound treated for 7 days; assay type: functional
Plasmodium falciparum [42] = assay: Antimalarial activity against chloroquine-sensitive, pyrimethamine-resistant Plasmodium falciparum Malayan Camp CH/Q infected in Aotus monkey assessed as dose required to >50% cures compound treated for 7 days; assay type: functional
Gallus gallus [43] = assay: Toxicity in trophozoite-induced Plasmodium gallinaceum infected in chick assessed as death at 320 mg/kg, sc single dose measured within 48 hrs; assay type: organism-based; parameters: dose 320 mg/kg, route subcutaneous; settings: chicken, in vivo
Plasmodium gallinaceum [44] = assay: Antimalarial activity against trophozoite-induced Plasmodium gallinaceum infected in chick assessed as mean survival time at 0.63 mg/kg, sc single dose (reference value: 4 days); assay type: functional; settings: route subcutaneous
Plasmodium gallinaceum [45] = assay: Antimalarial activity against trophozoite-induced Plasmodium gallinaceum infected in chick assessed as cured at 0.63 mg/kg, sc single dose; assay type: functional, organism-based; parameters: dose 0.63 mg/kg
Gallus gallus [46] = assay: Toxicity in trophozoite-induced Plasmodium gallinaceum infected in chick assessed as death at 0.63 mg/kg, sc single dose measured within 48 hrs; assay type: organism-based; parameters: dose 0.63 mg/kg, route subcutaneous; settings: chicken, in vivo
Gallus gallus [47] = assay: Toxicity in trophozoite-induced Plasmodium gallinaceum infected in chick assessed as death at 160 mg/kg, sc single dose measured within 48 hrs; assay type: organism-based; parameters: dose 160 mg/kg, route subcutaneous; settings: chicken, in vivo
Gallus gallus [48] = assay: Toxicity in trophozoite-induced Plasmodium gallinaceum infected in chick assessed as death at 80 mg/kg, sc single dose measured within 48 hrs; assay type: organism-based; parameters: dose 80 mg/kg, route subcutaneous; settings: chicken, in vivo
Plasmodium gallinaceum [49] = assay: Antimalarial activity against cycloguanil-resistant Plasmodium gallinaceum infected in mouse assessed as dose required to suppress parasitemia by 90% compound treated through diet for 6 days relative to parent strain; assay type: functional

Nc1nc(N)c2cc(S(=O)(=O)c3ccc4ccccc4c3)ccc2n1
MIC (Shigella sonnei): > 25 µg/mL | Activity (Plasmodium gallinaceum [1]): Active | Activity (Gallus gallus [2]): Toxic | MIC (Staphylococcus aureus [3]): > 25 µg/mL | CD90 (Plasmodium falciparum [4]): 0.00156 mg/kg | Activity (Gallus gallus [5]): Toxic | Activity (Plasmodium falciparum [6]): 0.025 mg/kg | Activity (Plasmodium gallinaceum [7]): Active | Activity (Plasmodium gallinaceum [8]): Active | Activity (Gallus gallus [9]): Toxic | MST (Plasmodium berghei [10]): 12.1 days | MIC (Pseudomonas aeruginosa): > 25 µg/mL | MCD (Plasmodium berghei [11]): 20 mg/kg | MIC (Staphylococcus aureus [12]): 25 µg/mL (≈ 71.3 µM) | IC50 [13]: 2.4 nM | IC50 (Lacticaseibacillus casei): 0.00014 µg/mL (≈ 0.0004 µM) | MST (Plasmodium gallinaceum [14]): 11.8 days | Activity (Plasmodium gallinaceum [15]): Active | MST (Plasmodium gallinaceum [16]): 15 days | Activity (Gallus gallus [17]): Toxic | MIC [18]: > 25 µg/mL | IC50 (Enterococcus faecalis [19]): 0.007 ng/mL (≈ 2e-05 µM) | CD90 (Plasmodium falciparum [20]): 0.39 mg/kg | MIC (Escherichia coli): > 25 µg/mL | CD90 (Plasmodium vivax [21]): 0.098 mg/kg | MST (Plasmodium berghei [22]): 10.9 days | MST (Plasmodium gallinaceum [23]): 6 days | Activity (Plasmodium gallinaceum [24]): Active | CD90 (Plasmodium falciparum [25]): 0.025 mg/kg | Activity (Gallus gallus [26]): Toxic | MST (Plasmodium gallinaceum [27]): 8.8 days | Activity (Gallus gallus [28]): Toxic | MIC (Enterococcus faecalis [29]): > 25 µg/mL | CD90 (Plasmodium vivax [30]): 6.25 mg/kg | CD90 (Plasmodium falciparum [31]): 0.098 mg/kg | CD90 (Plasmodium falciparum [32]): >6.25 mg/kg | Activity (Plasmodium gallinaceum [33]): 2.4 mg/kg | MST (Plasmodium gallinaceum [34]): 13 days | Activity (Plasmodium gallinaceum [35]): Active | MST (Plasmodium gallinaceum [36]): 20.4 days | MST (Plasmodium berghei [37]): 15.6 days | CD90 (Plasmodium vivax [38]): 0.39 mg/kg | IC50 [39]: 0.00016 µg/mL (≈ 0.000457 µM) | fold change (FC) (Plasmodium gallinaceum [40]): 0 | CD90 (Plasmodium falciparum [41]): 0.39 mg/kg | Activity (Plasmodium falciparum [42]): 0.39 mg/kg

Nc1nc(N)c2cc(S(=O)(=O)c3ccc(Cl)cc3)ccc2n1
Activity (Plasmodium gallinaceum [1]): Active | Activity (Gallus gallus [2]): Toxic | Activity (Gallus gallus [5]): Toxic | Activity (Plasmodium gallinaceum [7]): Active | Activity (Gallus gallus [9]): Toxic | MST (Plasmodium berghei [10]): 12.2 days | MCD (Plasmodium berghei [11]): 40 mg/kg | Activity (Gallus gallus [43]): Toxic | MST (Plasmodium gallinaceum [44]): 4 days | Activity (Plasmodium gallinaceum [45]): Active | Activity (Gallus gallus [46]): Toxic | MST (Plasmodium gallinaceum [14]): 16 days | Activity (Gallus gallus [17]): Toxic | MST (Plasmodium berghei [22]): 7.7 days | MST (Plasmodium gallinaceum [23]): 7.4 days | Activity (Gallus gallus [26]): Toxic | MST (Plasmodium gallinaceum [27]): 15 days | Activity (Gallus gallus [28]): Toxic | MST (Plasmodium gallinaceum [34]): 20 days | Activity (Gallus gallus [47]): Toxic | Activity (Gallus gallus [48]): Toxic

Nc1nc(N)c2cc(Sc3ccc(Cl)cc3)ccc2n1
Activity (Plasmodium falciparum [6]): 0.31 mg/kg | fold change (FC) (Plasmodium gallinaceum [49]): 4 | Activity (Plasmodium falciparum [42]): 5 mg/kg
